Measured values as given in ChEMBL document CHEMBL5500388, “Design, synthesis and biological evaluation of 4-(indolin-1-yl)-6-substituted-pyrido[3,2-d]pyrimidine derivatives as Mnk1/2 inhibitors” (Eur J Med Chem, 2024).

Experiments:
MOLM-13 [1] = test: Induction of cell cycle arrest at G0/G1 stage in human MOLM-13 cells at 2 uM treated for 24 hrs by PI/RNase staining based flow cytometry (reference value: 53.98 %); assay type: functional
MOLM-13 [2] = test: Induction of cell cycle arrest at G0/G1 stage in human MOLM-13 cells at 4 uM treated for 24 hrs by PI/RNase staining based flow cytometry (reference value: 53.98 %); assay type: functional
MOLM-13 [3] = test: Induction of cell cycle arrest at G0/G1 stage in human MOLM-13 cells at 8 uM treated for 24 hrs by PI/RNase staining based flow cytometry (reference value: 53.98 %); assay type: functional
K562 [4] = test: Induction of cell cycle arrest at G0/G1 stage in human K562 cells at 4 uM treated for 24 hrs by PI/RNase staining based flow cytometry (reference value: 38.8 %); assay type: functional
K562 [5] = test: Induction of cell cycle arrest at G0/G1 stage in human K562 cells at 8 uM treated for 24 hrs by PI/RNase staining based flow cytometry (reference value: 38.8 %); assay type: functional
K562 [6] = test: Induction of cell cycle arrest at G0/G1 stage in human K562 cells at 16 uM treated for 24 hrs by PI/RNase staining based flow cytometry (reference value: 38.8 %); assay type: functional
HCT-116 = test: cells; conditions: Homo sapiens, HCT-116, 96 h
MOLM-13 [7] = test: cells; conditions: Homo sapiens, MOLM-13, 72 h
K562 [8] = test: cells; conditions: Homo sapiens, K562, 72 h
HL-60 = test: cells; conditions: Homo sapiens, HL-60, 72 h

Nc1ncnc2[nH]nc(Nc3ccc(F)cc3)c12
Activity (MOLM-13 [1]): 55.79%
Activity (MOLM-13 [2]): 59.95%
Activity (MOLM-13 [3]): 66.39%
Activity (K562 [4]): 48.93%
Activity (K562 [5]): 52.06%
Activity (K562 [6]): 58.15%
GI50 (HCT-116): 10.2 µM
GI50 (MOLM-13 [7]): 10.7 µM
GI50 (K562 [8]): 26.6 µM
GI50 (HL-60): 8.42 µM
